{
  "source": "patent US20040229207A1",
  "about": "(priority 1999, published 2004)",
  "key": {"LAB-1": {"test_system": "LAB-1", "assay": "Antibiotic sensitivity testing of LAB-1", "type": "cell-based", "method": "A variety of biochemical tests were performed in order to identify the species and the genus of organism. The tests included: assessment of growth conditions, culture appearance, cell appearance and staining characteristics, optimal temperature and pH growth range, oxygen requirements, antibiotic sensitivity testing, tests for catalase and oxidase (using TAXOS N™ disks), amino acid utilization as carbon source, nitrogen fixation, motility test, and a variety of commercially available tests from MICRO-ID™, OXYFERM™, ENTEROTUBE™ and BIOLOG GN MICROPLATE™."}, "LAB-1 strain": {"test_system": "LAB-1 strain", "assay": "Inhibition of LAB-1 growth, cell attachment and biofilm production in growth media", "type": "cell-based", "details": "0.1-1.0% (w/v) in liquid or solid growth media", "excerpt": "It would be apparent to one of ordinary skill in the art to apply the above methods to inhibit the production of mucoid compounds and biofilm in any mucoid organism."}},
  "data": [
    {"compound": "NCC[C@H](O)C(=O)N[C@@H]1C[C@H](N)[C@@H](O[C@H]2O[C@H](CN)[C@@H](O)[C@H](O)[C@H]2O)[C@H](O)[C@H]1O[C@H]1O[C@H](CO)[C@@H](O)[C@H](N)[C@H]1O", "note": "[Amikacin]", "values": [
      {"measurement": "Antibiotic Susceptibility", "setting": "LAB-1", "result": "sensitive"}
    ]},
    {"compound": "CC1(C)S[C@@H]2[C@H](NC(=O)[C@H](N)c3ccccc3)C(=O)N2[C@H]1C(=O)O", "note": "[Ampicillin]", "values": [
      {"measurement": "Antibiotic Susceptibility", "setting": "LAB-1", "result": "resistant"}
    ]},
    {"compound": "CC[C@H]1OC(=O)[C@H](C)[C@@H](O[C@H]2C[C@@](C)(OC)[C@@H](O)[C@H](C)O2)[C@H](C)[C@@H](O[C@@H]2O[C@H](C)C[C@H](N(C)C)[C@H]2O)[C@](C)(O)C[C@@H](C)C(=O)[C@H](C)[C@@H](O)[C@]1(C)O", "note": "[Erythromycin]", "values": [
      {"measurement": "Antibiotic Susceptibility", "setting": "LAB-1", "result": "resistant"}
    ]},
    {"compound": "CO[C@@H]1[C@@H](OC(N)=O)[C@@H](O)[C@H](Oc2ccc3c(O)c(NC(=O)c4ccc(O)c(CC=C(C)C)c4)c(=O)oc3c2C)OC1(C)C", "note": "[Novobiocin]", "values": [
      {"measurement": "Antibiotic Susceptibility", "setting": "LAB-1", "result": "sensitive"}
    ]},
    {"compound": "[H]/N=C(/N)N[C@H]1[C@H](O)[C@@H](O)[C@H](O[C@@H]2O[C@@H](C)[C@](O)(C=O)[C@H]2O[C@@H]2O[C@@H](CO)[C@H](O)[C@@H](O)[C@@H]2NC)[C@@H](N/C(N)=N\\[H])[C@@H]1O", "note": "[Streptomycin]", "values": [
      {"measurement": "Antibiotic Susceptibility", "setting": "LAB-1", "result": "resistant"}
    ]},
    {"compound": "CC(C)Cc1ccc(C(C)C(=O)O)cc1", "note": "(stereo not shown) [ibuprofen, 2-(4-isobutylphenyl)-propionic acid]", "values": [
      {"measurement": "growth, development, cell attachment and biofilm production of LAB-1", "setting": "LAB-1 strain", "result": "differentially inhibits"}
    ]},
    {"compound": "CCC(=O)O", "note": "[propionic acid]", "values": [
      {"measurement": "growth, development, cell attachment and biofilm production of LAB-1", "setting": "LAB-1 strain", "result": "differentially inhibits"}
    ]},
    {"compound": "Neomycin", "values": [
      {"measurement": "Antibiotic Susceptibility", "setting": "LAB-1", "result": "sensitive"}
    ]},
    {"compound": "Penicillin", "values": [
      {"measurement": "Antibiotic Susceptibility", "setting": "LAB-1", "result": "resistant"}
    ]},
    {"compound": "Polymyxin B", "values": [
      {"measurement": "Antibiotic Susceptibility", "setting": "LAB-1", "result": "sensitive"}
    ]}
  ]
}
